This is an account of results in patent publication US20190038714A1, “ANTI-INFLAMMATORY COMPOSITION COMPRISING CLAVASPIRIN PEPTIDE ANALOGUE AS EFFECTIVE INGREDIENT” (INDUSTRY-ACADEMIC COOPERATION FOUNDATION, CHOSUN UNIVERSITY, priority 2015, published 2019).

Ends that are not written are not given here.

The subject of one series is S. aureus MRSA 5156. To be noted: 24 hours at 37° C.
In the next series the test system is S. aureus MRSA 3511. To be noted: 24 hours at 37° C.
In a further series the test system is S. aureus MRSA 5159. To be noted: 24 hours at 37° C.
For a further series, the system named is S. aureus MRSA 3518. To be noted: 24 hours at 37° C.
The nature of series [1]: Cytotoxicity in normal cell line (MTT). In kind it is cell-based, human. To be noted: human, HaCaT cells (keratinocyte cell line), HaCaT, 24 hours, MTT, read-out: Cell survival ability %; for viability at 24 h, 25 µM: peptide 25 μM; for viability at 24 h, 50 µM: peptide 50 μM; for viability at 24 h, 100 µM: peptide 100 μM; for viability at 24 h, 200 µM: peptide 200 μM; for viability at 24 h, 400 µM: peptide 400 μM. Here is the method:
(§1) To determine the cytotoxicity of the peptide produced by the method of Example 1 in normal cell line, toxicity was measured by using human keratinocyte forming cell line (HaCaT cell line, Dr. NE. Fusenig, Heidelberg, Germany).
(§2) Specifically, HaCaT cells which have been cultured in DMEM medium containing 10% FBS (Fetal Bovine Serum) were aliquoted in a 96-well plate (3×10^3 cells/well). […] After the culture, a reaction solution containing 5 mg/ml MTT (Thiazolyl Blue Tetrazolium Bromide) dissolved in physiological saline (PBS) was added in an amount of 20 μl to each well and allowed to react for 4 hours. After that, the supernatant was removed, and, by dissolving the formed MTT crystals by adding 200 μl of DMSO, the absorbance at 560 nm was measured to determine the cell survival ability.

For another series, the system named is S. aureus MRSA 5157. The following applies: 24 hours at 37° C.
The next series deals with skin of a hairless mouse. Nature of the series: Scanning electron microscopy of hairless mouse skin with induced dermatitis. In kind it is in vivo. To be noted: 200 μg/ml. Here is the method: Skin of a 6-week old hairless mouse was treated with 100 μl of S. aureus MRSA 0027 (1×10^8 cells/ml) to induce inflammation. Thirty minutes later, the skin was further treated with CSP-4 peptide at 100 μg/ml or 200 μg/ml. From each of a mouse having induced inflammation further treated with the peptide, a mouse treated only with the peptide, and a mouse having induced inflammation, tissues were collected and washed using physiological saline (PBS). Then, the tissues were fixed for 24 hours at room temperature by using 4% PFA (paraformaldehyde). […] According to H&E staining and immunohistochemical method, a change in tissues and onset of an anti-inflammatory cytokine or TLR2 receptor was determined. […] Remaining liquids were removed by TBST buffer such that the tissues are not detached, and a secondary antibody linked with green fluorescence (Got anti-mouse IgG (HRP) LF-SA5001-conjugated) was allowed to bind thereto. Next, each tissue was determined by using a fluorescent microscope (I×71, Olympus, Japan).
From the mouse tissues which have been treated according to the method of above Example 8, a paraffin block was prepared. […] Next, a change in the tissues was determined by using scanning electron microscopy (SEM).

For another series, the system named is HaCaT cell line. Nature of the series: Cytotoxicity in normal cell line (MTT). In kind it is cell-based, human. To be noted: HaCaT cell line. On the procedure:
as §1, §2

Regarding “FLRFIGSVIHGIGHLVHHIGVAL-NH2 [Clavaspirin]”, the minimal inhibitory concentration (MIC) with S. aureus MRSA 5156 amounted to 8 µM. For the same substance, the minimal inhibitory concentration (MIC) in the series with S. aureus MRSA 3511 is 8 µM. Moreover, in the series on S. aureus MRSA 5159, the MIC worked out at 32 µM. Besides, in the series with S. aureus MRSA 3518, the minimum inhibitory concentration (MIC) worked out at 8 µM. Further, in series [1], the viability at 24 h, 25 µM was 15%; the viability at 24 h, 50 µM worked out at 3%; the viability at 24 h, 100 µM was 1%; the viability at 24 h, 200 µM worked out at 1%. In addition, in series [1], the viability at 24 h, 400 µM is 0%. The same substance registered an MIC in the series on S. aureus MRSA 5157 of 8 µM.
FLRFIGSVKHGKGHLVHHIGVAL-NH2 [CSP-4] yielded an MIC against S. aureus MRSA 5156 of 8 µM. The substance also showed an MIC in the series with S. aureus MRSA 3511 of 8 µM. The same substance registered an MIC with S. aureus MRSA 5159 of 8 µM. In addition, in the series with skin of a hairless mouse, the “change in mouse skin (SEM), treated only with the peptide” value was “no change in mouse skin is induced”. This substance came in with an MIC with S. aureus MRSA 3518 of 8 µM. The “cytotoxicity in human keratinocyte forming cell line” value in the series with HaCaT cell line was “almost no cytotoxicity”. Further, in series [1], the viability at 24 h, 25 µM came out at 100%; the viability at 24 h, 50 µM came to 100%; the viability at 24 h, 100 µM was 100%; the viability at 24 h, 200 µM came out at 100%. Moreover, the viability at 24 h, 400 µM in series [1] stood at 88%. This substance displayed an MIC with S. aureus MRSA 5157 of 8 µM.
